Assay results as given in ChEMBL document CHEMBL1201862, “PubChem BioAssay data set” (2004).
The source made the active and inactive calls.

Assays:
[1] = target: Sphingosine 1-phosphate receptor 2 (Homo sapiens, UniProt O95136); assay: Dose Response Cell Based Assay for Antagonists of the S1P2 Receptor. [Related pubchem assays: 856, 736 ]; type: functional
Protein RecA = target: T1, Protein RecA (Mycobacterium tuberculosis, UniProt P9WHJ3); assay: Fluorescence Cell-Free Homogeneous Dose Retest to Identify Inhibitors of RecA-Intein Splicing Activity. [Related pubchem assays (depositor defined):AID2097, AID2223, AID489010, AID492950]; type: functional
T1 sequence (P9WHJ3 whole entry): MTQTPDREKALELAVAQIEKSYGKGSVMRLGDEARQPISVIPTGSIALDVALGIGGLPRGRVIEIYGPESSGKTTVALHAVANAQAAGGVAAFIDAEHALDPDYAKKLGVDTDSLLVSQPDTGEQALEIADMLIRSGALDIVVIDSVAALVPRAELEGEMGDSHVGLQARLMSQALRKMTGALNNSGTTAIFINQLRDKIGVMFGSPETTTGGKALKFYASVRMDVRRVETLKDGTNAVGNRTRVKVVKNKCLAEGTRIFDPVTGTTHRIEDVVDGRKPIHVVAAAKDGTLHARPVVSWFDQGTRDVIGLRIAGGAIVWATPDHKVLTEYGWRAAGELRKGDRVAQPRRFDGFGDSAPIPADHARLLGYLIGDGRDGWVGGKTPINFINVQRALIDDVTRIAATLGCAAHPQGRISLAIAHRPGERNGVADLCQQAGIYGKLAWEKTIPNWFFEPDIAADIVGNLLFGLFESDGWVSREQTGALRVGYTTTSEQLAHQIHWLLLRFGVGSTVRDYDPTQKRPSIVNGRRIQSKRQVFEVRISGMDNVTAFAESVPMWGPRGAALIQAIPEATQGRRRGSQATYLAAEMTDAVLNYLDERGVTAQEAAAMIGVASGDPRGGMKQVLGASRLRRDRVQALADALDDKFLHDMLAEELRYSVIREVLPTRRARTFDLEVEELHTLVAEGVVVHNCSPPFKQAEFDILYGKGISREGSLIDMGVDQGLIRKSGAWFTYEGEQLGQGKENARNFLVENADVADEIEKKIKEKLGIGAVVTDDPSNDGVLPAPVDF

[2] = target: T2, Orexin/Hypocretin receptor type 1 (Homo sapiens, UniProt O43613); assay: Fluorescence-based cell-based high throughput dose response assay for antagonists of the orexin 1 receptor (OX1R; HCRTR1). [Related pubchem assays (depositor defined):AID434989, AID435008, AID463079, AID485270, AID492963, AID492964, AID492965, AID493232, AID504717, AID504718]; type: functional
T2 sequence (O43613 whole entry): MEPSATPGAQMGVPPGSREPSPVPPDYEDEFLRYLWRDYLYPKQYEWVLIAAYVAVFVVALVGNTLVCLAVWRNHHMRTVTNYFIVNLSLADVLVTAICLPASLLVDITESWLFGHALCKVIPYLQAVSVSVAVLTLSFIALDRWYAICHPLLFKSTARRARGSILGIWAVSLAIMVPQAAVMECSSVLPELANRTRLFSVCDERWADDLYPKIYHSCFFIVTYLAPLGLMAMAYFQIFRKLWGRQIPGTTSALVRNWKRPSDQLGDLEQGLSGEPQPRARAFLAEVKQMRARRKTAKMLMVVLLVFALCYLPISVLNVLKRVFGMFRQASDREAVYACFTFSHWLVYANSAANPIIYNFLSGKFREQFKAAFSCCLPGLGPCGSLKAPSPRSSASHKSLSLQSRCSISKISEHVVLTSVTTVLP

[3] = target: Photoreceptor-specific nuclear receptor (Homo sapiens, UniProt Q9Y5X4); type: functional;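 also: potency for compounds that break the NR2E3 corepressor complex and count as activators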
[4] = target: Peroxisome proliferator-activated receptor gamma/Nuclear receptor corepressor 2 (Homo sapiens, UniProt P37231+Q9Y618); type: functional
[5] = target: Proto-oncogene tyrosine-protein kinase receptor Ret (Homo sapiens, UniProt P07949); type: functional;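 also: measured within a kinome-wide profiling panel, RET as the panel member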
[6] = target: Protein kinase C theta type (Homo sapiens, UniProt Q04759); assay: Navigating the Kinome. Panel member name: PRKCQ; type: functional
[7] = target: Platelet-derived growth factor receptor beta (Homo sapiens, UniProt P09619); type: functional;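 also: value comes from a kinome panel, with PDGFRB tested as one panel member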
[8] = inhibitors of HIV Env-driven cell fusion, dose response, cherry-pick (AID 652057); type: functional, cell-based
[9] = ZM109 Env clade C HIV-1 fusion inhibitors, dose response, HeLa effector, CEM target cells, luciferase, cherry-pick (AID 652058); type: functional, cell-based
[10] = target: ATP-dependent molecular chaperone HSP82 (Candida albicans (strain WO-1) (Yeast), UniProt C4YTQ8); assay: loss of DOC-induced GRE-beta-galactosidase reporter signal, dose response, Hsp90 inhibitor project, S. cerevisiae, luminescence (AID 2400); type: functional, cell-based;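 also: beta-galactosidase luminescence from glucocorticoid response element reporter as proxy for Hsp90 function; inhibitor potency where signal loss means Hsp90 inhibition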
Chain of ATP-dependent molecular chaperone HSP82 (C4YTQ8 whole entry): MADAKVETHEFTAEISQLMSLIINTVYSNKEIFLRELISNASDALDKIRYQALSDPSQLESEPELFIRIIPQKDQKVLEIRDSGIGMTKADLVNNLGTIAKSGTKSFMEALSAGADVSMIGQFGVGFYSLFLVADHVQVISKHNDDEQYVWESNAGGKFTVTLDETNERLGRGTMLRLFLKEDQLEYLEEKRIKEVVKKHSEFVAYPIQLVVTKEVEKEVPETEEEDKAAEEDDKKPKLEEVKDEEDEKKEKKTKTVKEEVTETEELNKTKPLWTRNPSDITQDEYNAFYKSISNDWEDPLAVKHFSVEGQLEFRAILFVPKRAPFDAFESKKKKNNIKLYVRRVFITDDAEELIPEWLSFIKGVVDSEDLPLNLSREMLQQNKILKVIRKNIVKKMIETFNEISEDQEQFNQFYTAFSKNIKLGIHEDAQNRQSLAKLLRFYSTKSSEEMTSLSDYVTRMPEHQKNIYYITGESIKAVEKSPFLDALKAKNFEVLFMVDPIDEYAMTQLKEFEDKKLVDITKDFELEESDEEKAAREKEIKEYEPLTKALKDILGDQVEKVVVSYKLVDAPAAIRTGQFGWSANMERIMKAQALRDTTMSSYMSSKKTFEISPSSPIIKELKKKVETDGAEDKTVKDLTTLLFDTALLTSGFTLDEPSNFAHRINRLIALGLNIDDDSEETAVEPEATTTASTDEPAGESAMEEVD

Chain of Sphingosine 1-phosphate receptor 2 (O95136 whole entry): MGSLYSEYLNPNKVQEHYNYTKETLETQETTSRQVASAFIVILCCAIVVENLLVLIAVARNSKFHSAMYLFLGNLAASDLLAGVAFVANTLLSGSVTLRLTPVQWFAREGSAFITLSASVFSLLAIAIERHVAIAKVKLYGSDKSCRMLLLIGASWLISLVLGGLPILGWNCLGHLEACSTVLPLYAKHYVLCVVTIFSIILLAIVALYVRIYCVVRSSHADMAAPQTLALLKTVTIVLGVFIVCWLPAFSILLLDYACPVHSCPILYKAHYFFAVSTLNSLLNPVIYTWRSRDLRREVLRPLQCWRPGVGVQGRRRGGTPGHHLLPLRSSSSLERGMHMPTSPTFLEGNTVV
Chain of Photoreceptor-specific nuclear receptor (Q9Y5X4 whole entry): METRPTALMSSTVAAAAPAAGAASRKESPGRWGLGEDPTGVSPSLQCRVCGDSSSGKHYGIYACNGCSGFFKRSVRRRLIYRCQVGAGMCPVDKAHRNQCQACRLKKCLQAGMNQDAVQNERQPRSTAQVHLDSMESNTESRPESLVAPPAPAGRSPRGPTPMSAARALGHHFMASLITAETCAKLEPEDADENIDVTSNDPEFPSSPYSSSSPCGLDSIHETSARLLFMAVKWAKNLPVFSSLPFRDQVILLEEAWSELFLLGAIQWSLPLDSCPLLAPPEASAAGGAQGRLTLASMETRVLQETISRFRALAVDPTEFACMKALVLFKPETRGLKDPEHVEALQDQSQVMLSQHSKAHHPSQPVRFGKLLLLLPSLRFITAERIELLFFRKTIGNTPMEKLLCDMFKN
Chain of Protein kinase C theta type (Q04759 whole entry): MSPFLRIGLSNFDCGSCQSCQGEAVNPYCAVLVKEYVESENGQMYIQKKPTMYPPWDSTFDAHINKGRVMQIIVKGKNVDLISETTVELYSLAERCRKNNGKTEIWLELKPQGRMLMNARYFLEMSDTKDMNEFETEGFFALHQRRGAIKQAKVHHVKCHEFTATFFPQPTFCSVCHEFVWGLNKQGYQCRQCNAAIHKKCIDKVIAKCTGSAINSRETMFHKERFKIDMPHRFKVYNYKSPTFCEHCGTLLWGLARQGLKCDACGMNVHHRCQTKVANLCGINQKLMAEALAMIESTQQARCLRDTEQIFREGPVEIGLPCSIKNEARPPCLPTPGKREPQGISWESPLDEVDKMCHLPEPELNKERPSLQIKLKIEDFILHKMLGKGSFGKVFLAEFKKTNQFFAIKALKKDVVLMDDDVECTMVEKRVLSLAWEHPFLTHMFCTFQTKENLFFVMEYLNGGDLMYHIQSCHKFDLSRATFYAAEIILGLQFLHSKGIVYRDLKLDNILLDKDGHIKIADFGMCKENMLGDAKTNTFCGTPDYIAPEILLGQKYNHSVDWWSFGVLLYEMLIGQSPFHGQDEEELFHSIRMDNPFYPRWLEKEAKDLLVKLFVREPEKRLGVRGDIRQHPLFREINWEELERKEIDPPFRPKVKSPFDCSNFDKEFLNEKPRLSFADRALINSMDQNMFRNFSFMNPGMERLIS
Chain of Proto-oncogene tyrosine-protein kinase receptor Ret (P07949 whole entry): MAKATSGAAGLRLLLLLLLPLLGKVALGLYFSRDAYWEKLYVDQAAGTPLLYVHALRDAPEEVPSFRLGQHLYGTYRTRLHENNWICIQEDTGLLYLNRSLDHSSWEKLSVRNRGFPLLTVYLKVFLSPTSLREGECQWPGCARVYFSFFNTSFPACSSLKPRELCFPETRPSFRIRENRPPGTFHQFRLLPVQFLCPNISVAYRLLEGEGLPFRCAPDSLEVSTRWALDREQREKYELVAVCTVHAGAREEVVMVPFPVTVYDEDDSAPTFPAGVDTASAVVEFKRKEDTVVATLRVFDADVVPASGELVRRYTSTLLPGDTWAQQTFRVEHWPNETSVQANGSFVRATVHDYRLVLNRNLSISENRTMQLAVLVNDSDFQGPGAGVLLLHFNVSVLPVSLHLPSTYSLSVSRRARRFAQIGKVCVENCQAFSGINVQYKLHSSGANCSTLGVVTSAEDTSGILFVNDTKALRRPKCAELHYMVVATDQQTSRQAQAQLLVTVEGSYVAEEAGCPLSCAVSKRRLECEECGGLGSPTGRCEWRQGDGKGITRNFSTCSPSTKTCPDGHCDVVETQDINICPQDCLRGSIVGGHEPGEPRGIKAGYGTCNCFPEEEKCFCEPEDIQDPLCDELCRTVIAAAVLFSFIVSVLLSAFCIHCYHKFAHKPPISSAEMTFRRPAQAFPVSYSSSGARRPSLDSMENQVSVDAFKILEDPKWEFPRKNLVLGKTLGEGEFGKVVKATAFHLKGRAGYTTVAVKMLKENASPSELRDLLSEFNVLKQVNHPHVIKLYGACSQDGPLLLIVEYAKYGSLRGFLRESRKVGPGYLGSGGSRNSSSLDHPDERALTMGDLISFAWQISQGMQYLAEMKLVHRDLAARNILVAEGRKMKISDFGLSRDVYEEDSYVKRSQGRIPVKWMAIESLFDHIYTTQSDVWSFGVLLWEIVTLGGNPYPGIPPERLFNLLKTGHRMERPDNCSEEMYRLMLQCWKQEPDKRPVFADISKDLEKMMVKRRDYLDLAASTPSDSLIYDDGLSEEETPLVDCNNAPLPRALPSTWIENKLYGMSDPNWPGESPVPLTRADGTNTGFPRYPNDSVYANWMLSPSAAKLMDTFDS
Chain of Platelet-derived growth factor receptor beta (P09619 whole entry, the tested form may be a part): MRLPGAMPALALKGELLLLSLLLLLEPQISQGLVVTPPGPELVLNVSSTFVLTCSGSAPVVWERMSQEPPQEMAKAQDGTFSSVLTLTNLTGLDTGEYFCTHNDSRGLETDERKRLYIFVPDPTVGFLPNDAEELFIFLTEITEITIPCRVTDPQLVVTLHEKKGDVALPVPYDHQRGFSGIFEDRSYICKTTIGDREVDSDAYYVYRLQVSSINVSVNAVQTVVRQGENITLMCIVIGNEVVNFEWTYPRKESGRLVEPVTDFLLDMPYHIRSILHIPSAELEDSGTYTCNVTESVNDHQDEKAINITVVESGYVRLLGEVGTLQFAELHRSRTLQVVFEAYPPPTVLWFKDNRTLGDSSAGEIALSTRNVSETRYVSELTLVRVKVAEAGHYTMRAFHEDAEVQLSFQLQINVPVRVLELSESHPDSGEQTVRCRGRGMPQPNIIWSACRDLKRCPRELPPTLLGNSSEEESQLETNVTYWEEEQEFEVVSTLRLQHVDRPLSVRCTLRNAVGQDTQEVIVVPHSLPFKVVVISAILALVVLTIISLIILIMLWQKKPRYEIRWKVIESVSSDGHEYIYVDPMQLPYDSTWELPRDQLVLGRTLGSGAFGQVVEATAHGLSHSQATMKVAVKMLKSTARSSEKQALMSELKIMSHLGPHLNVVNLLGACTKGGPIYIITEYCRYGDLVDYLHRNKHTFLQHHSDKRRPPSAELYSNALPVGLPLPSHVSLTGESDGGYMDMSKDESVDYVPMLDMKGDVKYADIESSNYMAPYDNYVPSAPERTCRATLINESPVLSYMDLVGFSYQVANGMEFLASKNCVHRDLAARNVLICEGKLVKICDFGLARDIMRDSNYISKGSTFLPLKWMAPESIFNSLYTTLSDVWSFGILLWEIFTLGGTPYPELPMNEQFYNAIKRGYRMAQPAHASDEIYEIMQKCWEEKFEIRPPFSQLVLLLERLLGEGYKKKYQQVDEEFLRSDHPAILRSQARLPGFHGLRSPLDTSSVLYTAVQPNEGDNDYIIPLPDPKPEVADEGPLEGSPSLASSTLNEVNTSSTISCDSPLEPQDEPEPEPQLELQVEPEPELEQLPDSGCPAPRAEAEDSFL

Cc1ccc(C(=O)OCn2ncc(Cl)c(Cl)c2=O)cc1
IC50 [1]: 2.65 µM (active)
EC50 (Protein RecA): 0.924 µM (active)
IC50 [2]: 6.12 µM (active)

O=C(O)CC(C(=O)O)N1C(=O)/C(=C/C=C/c2ccco2)SC1=S (stereo unspecified)
IC50 [3]: > 39.8 µM (not active)
IC50 [4]: > 39.8 µM (not active)

O=C(Nc1cccc(C2Nc3ccc4ccccc4c3C3C=CCC32)c1)c1ccc(F)cc1 (stereo unspecified)
Ki [5]: > 3.16 µM (inactive)
Ki [6]: 1 µM (active)
Ki [7]: 1.58 µM (active)

CCCC(=O)NC(c1cccs1)c1cc(Cl)c2cccnc2c1O (stereo unspecified)
AC50 [8]: 4.9 µM (active)
AC50 [9]: 15 µM (active)
EC50 [10]: > 150 µM (inactive)
